# In US20230116080A1, “METHOD FOR CONTROLLING THE GROWTH OF UNDESIRABLE VEGETATION” (UPL Limited, priority 2021, published 2023):
# Test system: weedy Eleusine indica
# Test: Post-emergence herbicidal efficacy of L-glufosinate, other herbicides and their combinations in greenhouse trials (observed control vs Colby expected)
# Type: in vivo
# Conditions: for Control %: Table 1
# Experimental: Evaluation of Post-Emergence Herbicidal Activity of Composition Under […]
# Greenhouse trials were carried out to evaluate the efficacy of the combination of L-glufosinate and the other herbicides on weedy Eleusine indica.
# The soil used was sandy clay loam—Sand: 68.0%; Silt: 8.0%; Clay: 24.0%.
# All treatments were in 3 replications per treatment with a spray volume of […].
# The expected efficacy of a combination of L-glufosinate and the other herbicides was calculated using the well-established Colby method. Any difference between the observed and “expected” efficacy could be attributed to synergy between the two compounds.
# In the Colby method, the expected (or predicted) response of a combination of herbicides is calculated by taking the product of the observed response for each individual component of the combination when applied alone, divided by 100, and subtracting this value from the sum of the observed response for each component when applied alone. An unexpected enhancement in efficacy of the combination is then determined by comparing the observed response of the combination to the expected (or predicted) response as calculated from the observed response of each individual component alone. If the observed response of the combination is greater than the expected (or predicted) response, or stated conversely, if the difference between the observed and expected response is greater than zero, then the combination is said to be synergistic or unexpectedly effective (Colby, S. R., Weeds, 1967(15), p. 20-22). The Colby method requires only a single dose of each herbicide applied alone and the mixture of both doses. The formula used to calculate the expected efficacy (EE) which was compared with the observed efficacy (OE) to determine the efficacy of the present invention is explained herein below:
# The expected efficacy for a combination of two active ingredients is as follows:
# The expected efficacy for a combination of three active ingredients is as follows:
# The percentage efficacy was calculated after 7, 14, 21, 28, 35 days of applications (DAA). The target weed was weedy Eleusine indica, and the concentration of the herbicide and the results are recorded in the table 1 below:
# The percentage efficacy was calculated after 7 and 35 days of application (DAA). The target weed was weedy Eleusine indica, and the concentration of the herbicide and the results are recorded in the table 2 below:
# The percentage efficacy was calculated after 3, 7, 14, 21, 28, 35 days of application (DAA). The target weed was weedy Eleusine indica, and the concentration of the herbicide and the results are recorded in the table 3 below:
# The target weed was weedy Eleusine indica, and the concentration of the herbicide and the results are recorded in the table 4 below:
# The percentage efficacy was calculated after 7, 14, 21, 28 and 35 days of application (DAA). The target weed was weedy Eleusine indica, and the concentration of the herbicide and the results are recorded in the table 5 below:
# The percentage efficacy was calculated after 3, 7, 28, 35 days of application (DAA). The target weed was weedy Eleusine indica, and the concentration of the herbicide and the results are recorded in the table 6 below: […]
# [1] = Table 7, 7 DAA, g ai/h: L-glufosinate 150, haloxyfop 50
# [2] = 7 DAA, dose a.i. g/h: L-glufosinate 150, oxyfluorfen 107.1, imazethapyr 75, carfentrazone 7.5
# [3] = 14 DAA, dose a.i. g/h: L-glufosinate 150, oxyfluorfen 107.1, imazethapyr 75, carfentrazone 7.5
# [4] = 21 DAA, dose a.i. g/h: L-glufosinate 150, oxyfluorfen 107.1, imazethapyr 75, carfentrazone 7.5
# [5] = 28 DAA, dose a.i. g/h: L-glufosinate 150, oxyfluorfen 107.1, imazethapyr 75, carfentrazone 7.5
# [6] = 35 DAA, dose a.i. g/h: L-glufosinate 150, oxyfluorfen 107.1, imazethapyr 75, carfentrazone 7.5
# [7] = Table 3, 3 DAA, g ai/h: L-glufosinate 150, flumioxazin 30
# [8] = Table 3, 7 DAA, g ai/h: L-glufosinate 150, flumioxazin 30
# [9] = Table 3, 14 DAA, g ai/h: L-glufosinate 150, flumioxazin 30
# [10] = Table 3, 21 DAA, g ai/h: L-glufosinate 150, flumioxazin 30
# [11] = Table 3, 28 DAA, g ai/h: L-glufosinate 150, flumioxazin 30
# [12] = Table 3, 35 DAA, g ai/h: L-glufosinate 150, flumioxazin 30
# [13] = Table 2, 7 DAA, g ai/h: L-glufosinate 150, glyphosate 379
# [14] = Table 2, 35 DAA, g ai/h: L-glufosinate 150, glyphosate 379
# [15] = Table 5, 7 DAA, g ai/h: L-glufosinate 150, triclopyr 288
# [16] = Table 5, 14 DAA, g ai/h: L-glufosinate 150, triclopyr 288
# [17] = Table 5, 21 DAA, g ai/h: L-glufosinate 150, triclopyr 288
# [18] = Table 5, 28 DAA, g ai/h: L-glufosinate 150, triclopyr 288
# [19] = Table 5, 35 DAA, g ai/h: L-glufosinate 150, triclopyr 288
# [20] = Table 4, 3 DAA, g ai/h: L-glufosinate 150, 2,4-D 204
# [21] = Table 4, 7 DAA, g ai/h: L-glufosinate 150, 2,4-D 204
# [22] = Table 4, 14 DAA, g ai/h: L-glufosinate 150, 2,4-D 204
# [23] = Table 4, 21 DAA, g ai/h: L-glufosinate 150, 2,4-D 204
# [24] = Table 4, 28 DAA, g ai/h: L-glufosinate 150, 2,4-D 204
# [25] = Table 4, 35 DAA, g ai/h: L-glufosinate 150, 2,4-D 204
# [26] = Table 6, 3 DAA, g ai/h: L-glufosinate 150, clethodim 45
# [27] = Table 6, 7 DAA, g ai/h: L-glufosinate 150, clethodim 45
# [28] = Table 6, 28 DAA, g ai/h: L-glufosinate 150, clethodim 45
# [29] = Table 6, 35 DAA, g ai/h: L-glufosinate 150, clethodim 45
compound,measurement,setting,value
"CC(Oc1ccc(Oc2ncc(C(F)(F)F)cc2Cl)cc1)C(=O)O (stereo not shown) [Haloxyfop, haloxyfop]",% control,[1],25%
"Cc1nn(-c2cc(CC(Cl)C(=O)O)c(Cl)cc2F)c(=O)n1C(F)F (stereo not shown) [Carfentrazone, carfentrazone]",Control %,[2],14%
same,Control %,"7 DAA, dose a.i. g/h: carfentrazone 9.0, alone or with L-glufosinate 150",16.7%
same,Control %,[3],12.3%
same,Control %,"14 DAA, dose a.i. g/h: carfentrazone 9.0, alone or with L-glufosinate 150",16.7%
same,Control %,[4],11%
same,Control %,"21 DAA, dose a.i. g/h: carfentrazone 9.0, alone or with L-glufosinate 150",14%
same,Control %,[5],7.7%
same,Control %,"28 DAA, dose a.i. g/h: carfentrazone 9.0, alone or with L-glufosinate 150",12.3%
same,Control %,[6],0%
same,Control %,"35 DAA, dose a.i. g/h: carfentrazone 9.0, alone or with L-glufosinate 150",6.7%
"CCOc1cc(Oc2ccc(C(F)(F)F)cc2Cl)ccc1[N+](=O)[O-] [Oxyfluorfen, oxyfluorfen]",Control %,[2],44%
same,Control %,[3],40%
same,Control %,[4],37%
same,Control %,[5],28.3%
same,Control %,[6],23.3%
"C#CCN1C(=O)COc2cc(F)c(N3C(=O)C4=C(CCCC4)C3=O)cc21 [Flumioxazin, flumioxazin]",% control,[7],5.0%
same,% control,[8],28.3%
same,% control,[9],21.7%
same,% control,[10],10%
same,% control,[11],5%
same,% control,[12],0%
"O=C(O)CNCP(=O)(O)O [Glyphosate, glyphosate]",% control,[13],28.3%
same,% control,[14],81.7%
"O=C(O)COc1nc(Cl)c(Cl)cc1Cl [Triclopyr, triclopyr]",% control,[15],8%
same,% control,[16],13.3%
same,% control,[17],6.7%
same,% control,[18],6.7%
same,% control,[19],6.7%
CP(=O)(O)CC[C@H](N)C(=O)O [L-glufosinate],Control %,[2],43.3%
same,Control %,[3],41.3%
same,Control %,[4],37.3%
same,Control %,[5],28.3%
same,Control %,[6],25.3%
same,% control,[13],50.7%
same,% control,[14],54.3%
same,% control,[7],12.3%
same,% control,[8],50.7%
same,% control,[9],65.0%
same,% control,[10],64.3%
same,% control,[11],59.3%
same,% control,[12],54.3%
same,% control,[20],12.3%
same,% control,[21],50.7%
same,% control,[22],65.0%
same,% control,[23],64.3%
same,% control,[24],59.3%
same,% control,[25],54.3%
same,% control,[15],50.7%
same,% control,[16],65.0%
same,% control,[17],64.3%
same,% control,[18],59.3%
same,% control,[19],54.3%
same,% control,[26],12.3%
same,% control,[27],50.7%
same,% control,[28],59.3%
same,% control,[29],54.3%
same,% control,[1],50.7%
"CCSC(C)CC1CC(=O)C(/C(CC)=N/OC/C=C/Cl)=C(O)C1 (stereo not shown) [Clethodim, clethodim]",% control,[26],6.7%
same,% control,[27],15%
same,% control,[28],81.7%
same,% control,[29],84.3%
"O=C(O)COc1ccc(Cl)cc1Cl [2,4-D]",% control,[20],5%
same,% control,[21],4%
same,% control,[22],6.7%
same,% control,[23],5%
same,% control,[24],5%
same,% control,[25],0%
"CCc1cnc(C2=NC(C)(C(C)C)C(=O)N2)c(C(=O)O)c1 (stereo not shown) [Imazethapyr, imazethapyr]",Control %,[2],8.3%
same,Control %,[3],12%
same,Control %,[4],12.7%
same,Control %,[5],12.7%
same,Control %,[6],10%
